Laboratory results as given in patent EP0252380B1, “Antibiotic LL-E19020 alpha and beta” (AMERICAN CYANAMID COMPANY, priority 1986, dated 1988).
Marks after values point to notes of the source that are not given here.

Assays:
Babesia bovis = assay: Anti-Babesia bovis activity, 3H hypoxanthine incorporation in in vitro culture; details: parasitemia of 4%
[1] = Weight gains and feed efficiency in broiler chicks treated with E19020 alpha (Table IX A); format: in vivo; details: for FEED/GAIN 0-3 WEEKS: control 1.43; for FEED/GAIN 0-7 WEEKS: control 1.99; for WEIGHT GAIN IN GRAMS 0-3 WEEKS: control 608; for WEIGHT GAIN IN GRAMS 0-7 WEEKS: control 2145
Protocol: Five male and five female one day old Peterson X Arbor Acres chicks are allotted to starter battery cages by weight. Cages are randomized to treatment groups with seven replicates per treatment. […] The positive standard is penicillin at 200 ppm. Diets are prepared weekly.

## C/C=C\C=C\[C@@H]1O[C@](O)([C@H](CO[C@H]2C[C@@H](OC)[C@@H](O[C@@H]3C[C@@H](OC)[C@@H](O[C@H]4C[C@H](OC)[C@H](O)[C@H](C)O4)[C@H](C)O3)[C@@H](C)O2)C(=O)NC/C=C/C=C(\C)[C@@H](OC)[C@H](C)[C@H]2C[C@H](O)[C@H](/C=C/C=C/C=C/C(=O)O)O2)[C@H](OC(=O)Cc2ccccc2)[C@H](O)C1(C)C [LL-E19020 alpha]
Babesia bovis
  50% inhibitory concentration: 0.625 µg/mL
[1]; 6.25 PPM
  FEED/GAIN % IMPROVEMENT OVER CONTROLS 0-3 WEEKS: 3.5%
  FEED/GAIN % IMPROVEMENT OVER CONTROLS 0-7 WEEKS: 5.0%
  WEIGHT GAIN % IMPROVEMENT OVER CONTROLS 0-3 WEEKS: 4.4%
  WEIGHT GAIN % IMPROVEMENT OVER CONTROLS 0-7 WEEKS: 1.8%
  FEED/GAIN 0-3 WEEKS: 1.38**
  FEED/GAIN 0-7 WEEKS: 1.89**
  WEIGHT GAIN IN GRAMS 0-3 WEEKS: 635* GRAMS
  WEIGHT GAIN IN GRAMS 0-7 WEEKS: 2183 GRAMS
[1]; 12.5 PPM
  FEED/GAIN % IMPROVEMENT OVER CONTROLS 0-3 WEEKS: 3.5%
  FEED/GAIN % IMPROVEMENT OVER CONTROLS 0-7 WEEKS: 4.0%
  WEIGHT GAIN % IMPROVEMENT OVER CONTROLS 0-3 WEEKS: 6.3%
  WEIGHT GAIN % IMPROVEMENT OVER CONTROLS 0-7 WEEKS: 2.5%
  FEED/GAIN 0-3 WEEKS: 1.38**
  FEED/GAIN 0-7 WEEKS: 1.91**
  WEIGHT GAIN IN GRAMS 0-3 WEEKS: 647* GRAMS
  WEIGHT GAIN IN GRAMS 0-7 WEEKS: 2198 GRAMS
[1]; 25 PPM
  FEED/GAIN % IMPROVEMENT OVER CONTROLS 0-3 WEEKS: 3.5%
  FEED/GAIN % IMPROVEMENT OVER CONTROLS 0-7 WEEKS: 5.0%
  WEIGHT GAIN % IMPROVEMENT OVER CONTROLS 0-3 WEEKS: 8.4%
  WEIGHT GAIN % IMPROVEMENT OVER CONTROLS 0-7 WEEKS: 5.7%
  FEED/GAIN 0-3 WEEKS: 1.38**
  FEED/GAIN 0-7 WEEKS: 1.89**
  WEIGHT GAIN IN GRAMS 0-3 WEEKS: 659** GRAMS
  WEIGHT GAIN IN GRAMS 0-7 WEEKS: 2267* GRAMS
[1]; 50 PPM
  FEED/GAIN % IMPROVEMENT OVER CONTROLS 0-3 WEEKS: 2.8%
  FEED/GAIN % IMPROVEMENT OVER CONTROLS 0-7 WEEKS: 4.0%
  WEIGHT GAIN % IMPROVEMENT OVER CONTROLS 0-3 WEEKS: 5.6%
  WEIGHT GAIN % IMPROVEMENT OVER CONTROLS 0-7 WEEKS: 2.8%
  FEED/GAIN 0-3 WEEKS: 1.39*
  FEED/GAIN 0-7 WEEKS: 1.91**
  WEIGHT GAIN IN GRAMS 0-3 WEEKS: 642* GRAMS
  WEIGHT GAIN IN GRAMS 0-7 WEEKS: 2206 GRAMS
[1]; 100 PPM
  FEED/GAIN % IMPROVEMENT OVER CONTROLS 0-3 WEEKS: 5.6%
  FEED/GAIN % IMPROVEMENT OVER CONTROLS 0-7 WEEKS: 4.0%
  WEIGHT GAIN % IMPROVEMENT OVER CONTROLS 0-3 WEEKS: 7.3%
  WEIGHT GAIN % IMPROVEMENT OVER CONTROLS 0-7 WEEKS: 2.8%
  FEED/GAIN 0-3 WEEKS: 1.35**
  FEED/GAIN 0-7 WEEKS: 1.91**
  WEIGHT GAIN IN GRAMS 0-3 WEEKS: 652** GRAMS
  WEIGHT GAIN IN GRAMS 0-7 WEEKS: 2204 GRAMS
